From patent US7109341B2, “Therapeutic amides” (Wayne State University, priority 2002, dated 2006)
“And” between values parts separate entries of the source, which are not always exact repeats. Equal entries are not always repeated.

Columns and labels:
[1] = system: Pancreatic Ductal Adenocarcinoma 03; test: Evaluation against early stage Pancreatic Ductal Adenocarcinoma 03 in female BDF1 mice (Table 4); format: in vivo, mouse; settings: Cage 14; IV; 48 mg/kg/inj QD 3–9; total 336 mg/kg
Source text: The higher dose requirement for compound 14e may be a disadvantage over compound 11b (Cage 14).

[2] = system: Mammary Adenocarcinoma 17/ADR; test: Evaluation against early stage Mammary Adenocarcinoma 17/ADR, C3H/He females (Table 3); format: in vivo; settings: for % Body Wt Loss at Nadir / % T/C mass / Day of Nadir / Drug Deaths / Growth Delay / Log Kill / Median Tumor Mass on Day 9 (Range) / Tumor Free day-21 / Activity Rating: PO
[3] = system: Pancreatic Adenocarcinoma 03; test: Evaluation against early stage Pancreatic Adenocarcinoma 03 in BDF1 male mice (Table 1); format: in vivo, mouse; settings: PO, QD3–6, 9–11, BID 7–8
[4] = IV, short, dose-intense schedule BID-1–3, 162 mg/kg total dose
[5] = Cage 5, 145 mg/kg/inj QD-1–3 and 7–9, total 870 mg/kg
[6] = Cage 6, 90 mg/kg/inj QD-1–3 and 7–9, total 540 mg/kg
[7] = Cage 7, 55.8 mg/kg/inj QD-1–3 and 7–9, total 334.8 mg/kg
[8] = Cage 8, 34.6 mg/kg/inj QD-1–3, 145 mg/kg/inj QD-7–9, total 538.8 mg/kg

SMILES: CC(Oc1ccc(Oc2ccc3ccc(Cl)cc3n2)cc1)C(=O)O (stereo not shown) [Compound 11b]
- % Body Wt Loss at Nadir [1]: −8.9%
- % T/C mass [1]: 0%
- Activity Rating [1]: +++ (2.0–2.8)
- Day of Nadir [1]: 11 days
- Drug Deaths [1]: 0/5
- Growth Delay [1]: 17.5 days
- Log Kill [1]: 2.6
- Median Tumor Mass on Day 14 (Range) [1]: 0
- Tumor Free day-37 [1]: 0/5
- day of full body weight recovery [1]: ~15 days

SMILES: COc1c(Cl)ccc2ccc(Oc3ccc(OC(C)C(=O)O)cc3)nc12 (stereo not shown) [Compound 13a, reference compound]
- T/C [2, 4]: 7%
- log kill [2, 4]: 1.5

SMILES: CC(Oc1ccc(Oc2cnc3ccc(Cl)cc3n2)cc1)C(N)=O (stereo not shown) [Compound 14a]
- Day of Wt. Loss Nadir ([3]; Cage 5, total 1,320 mg/kg): 8 days
- Drug Deaths (days of death) ([3]; Cage 5, total 1,320 mg/kg): 0/5
- Log Kill ([3]; Cage 5, total 1,320 mg/kg): 1.9
- Mean Body Wt. Loss in g/mouse ([3]; Cage 5, total 1,320 mg/kg): −0.8 g/mouse
- Median tumor burden in mg on day 14 (range) ([3]; Cage 5, total 1,320 mg/kg): 126 mg
- Percent Body Wt. Loss ([3]; Cage 5, total 1,320 mg/kg): −3.6%
- T-C ([3]; Cage 5, total 1,320 mg/kg): 12 days
- T/C % ([3]; Cage 5, total 1,320 mg/kg): 7.3%
- Time to 1000 mg days (range) ([3]; Cage 5, total 1,320 mg/kg): 23 days
- Tumor Free on day 21 ([3]; Cage 5, total 1,320 mg/kg): 0/5
- toxicity observations ([3]; Cage 5, total 1,320 mg/kg): Toxicity was not reached
- Day of Wt. Loss Nadir ([3]; Cage 6, total 660 mg/kg): 5 days
- Drug Deaths (days of death) ([3]; Cage 6, total 660 mg/kg): 0/5
- Log Kill ([3]; Cage 6, total 660 mg/kg): 0.7
- Mean Body Wt. Loss in g/mouse ([3]; Cage 6, total 660 mg/kg): −0.4 g/mouse
- Median tumor burden in mg on day 14 (range) ([3]; Cage 6, total 660 mg/kg): 695 mg
- Percent Body Wt. Loss ([3]; Cage 6, total 660 mg/kg): −1.8%
- T-C ([3]; Cage 6, total 660 mg/kg): 4.5 days
- T/C % ([3]; Cage 6, total 660 mg/kg): 40%
- Time to 1000 mg days (range) ([3]; Cage 6, total 660 mg/kg): 15.5 days
- Tumor Free on day 21 ([3]; Cage 6, total 660 mg/kg): 0/5
- Day of Wt. Loss Nadir ([3]; Cage 7, total 330 mg/kg): 6 days
- Drug Deaths (days of death) ([3]; Cage 7, total 330 mg/kg): no lethality and 0/5
- Log Kill ([3]; Cage 7, total 330 mg/kg): 0.3
- Median tumor burden in mg on day 14 (range) ([3]; Cage 7, total 330 mg/kg): 1273 mg
- T-C ([3]; Cage 7, total 330 mg/kg): 2 days
- T/C % ([3]; Cage 7, total 330 mg/kg): 74%
- Time to 1000 mg days (range) ([3]; Cage 7, total 330 mg/kg): 13 days
- Tumor Free on day 21 ([3]; Cage 7, total 330 mg/kg): 0/5

SMILES: COc1c(Cl)ccc2ncc(Oc3ccc(OC(C)C(=O)N(C)C)cc3)nc12 (stereo not shown) [Compound 14c]
- % Body Wt Loss at Nadir [2, 5]: −5.8%
- % T/C mass [2, 5]: 20%
- Day of Nadir [2, 5]: 9 days
- Drug Deaths [2, 5]: 0/5
- Growth Delay [2, 5]: 5.5 days
- Log Kill [2, 5]: 1.5
- Median Tumor Mass on Day 9 (Range) [2, 5]: 243
- Tumor Free day-21 [2, 5]: 0/5
- % Body Wt Loss at Nadir [2, 6]: +1.4%
- % T/C mass [2, 6]: 31%
- Activity Rating [2, 6]: ++ (1.3–1.9)
- Day of Nadir [2, 6]: 9 days
- Drug Deaths [2, 6]: 0/5
- Growth Delay [2, 6]: 5.0 days
- Log Kill [2, 6]: 1.4
- Median Tumor Mass on Day 9 (Range) [2, 6]: 369
- Tumor Free day-21 [2, 6]: 0/5
- % Body Wt Loss at Nadir [2, 7]: +0.0%
- % T/C mass [2, 7]: 31%
- Activity Rating [2, 7]: + (0.7–1.2)
- Day of Nadir [2, 7]: 9 days
- Drug Deaths [2, 7]: 0/5
- Growth Delay [2, 7]: 3.5 days
- Log Kill [2, 7]: 1.0
- Median Tumor Mass on Day 9 (Range) [2, 7]: 368
- Tumor Free day-21 [2, 7]: 0/5
- % Body Wt Loss at Nadir [2, 8]: −1.4%
- % T/C mass [2, 8]: 55%
- Activity Rating [2, 8]: + (0.7–1.2)
- Day of Nadir [2, 8]: 11 days
- Drug Deaths [2, 8]: 0/5
- Growth Delay [2, 8]: 3.3 days
- Log Kill [2, 8]: 0.9
- Median Tumor Mass on Day 9 (Range) [2, 8]: 660
- Tumor Free day-21 [2, 8]: 0/5
